# Measured values: PubChem BioAssay (NCI)
# “And” between values parts separate entries of the source, which are not always exact repeats. Identical values can stand only once.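 Five compound concentrations were applied to cells in 96-well plates for 48 hours; endpoints were derived by simple linear interpolation of the resulting dose-response curve. GI50 marks 50% less growth. TGI: concentration producing complete growth inhibition.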
# Assays:
# Test in all cases: growth of human tumour cells (NCI), 48 h
# HS 578T breast = system: HS 578T breast
# CAKI-1 renal = system: CAKI-1 renal
# CCRF-CEM leukemia = system: CCRF-CEM leukemia
# OVCAR-3 ovarian = system: OVCAR-3 ovarian
# RXF 393 renal = system: RXF 393 renal
# A498 renal = system: A498 renal
# PC-3 prostate = system: PC-3 prostate
# SNB-19 CNS = system: SNB-19 CNS
# A549 NSCLC = system: A549 NSCLC
# COLO 205 colon = system: COLO 205 colon
# SN12C renal = system: SN12C renal
# T-47D breast = system: T-47D breast
# M14 melanoma = system: M14 melanoma
# 786-0 renal = system: 786-0 renal
# MDA-MB-231 breast = system: MDA-MB-231 breast
# SF-539 CNS = system: SF-539 CNS
# SF-295 CNS = system: SF-295 CNS
# MCF7 breast = system: MCF7 breast
# UACC-257 melanoma = system: UACC-257 melanoma
# BT-549 breast = system: BT-549 breast
# HOP-92 NSCLC = system: HOP-92 NSCLC
# EKVX NSCLC = system: EKVX NSCLC
# NCI/ADR-RES ovarian = system: NCI/ADR-RES ovarian
# ACHN renal = system: ACHN renal
# HT29 colon = system: HT29 colon
# SK-MEL-5 melanoma = system: SK-MEL-5 melanoma
# NCI-H23 lung = system: NCI-H23 lung
# SK-OV-3 ovarian = system: SK-OV-3 ovarian
# UO-31 renal = system: UO-31 renal
# HCT-116 colon = system: HCT-116 colon
# SNB-75 CNS = system: SNB-75 CNS
# K-562 leukemia = system: K-562 leukemia
# NCI-H522 lung = system: NCI-H522 lung
# NCI-H226 lung = system: NCI-H226 lung
# HCT-15 colon = system: HCT-15 colon
# OVCAR-8 ovarian = system: OVCAR-8 ovarian
# HOP-62 NSCLC = system: HOP-62 NSCLC
# MDA-MB-435 = system: MDA-MB-435
# HL-60(TB) leukemia = system: HL-60(TB) leukemia
# OVCAR-5 ovarian = system: OVCAR-5 ovarian
# DU-145 prostate = system: DU-145 prostate
# SF-268 CNS = system: SF-268 CNS
# TK-10 renal = system: TK-10 renal
# LOX IMVI melanoma = system: LOX IMVI melanoma
# NCI-H460 lung = system: NCI-H460 lung
# HCC-2998 colon = system: HCC-2998 colon
# RPMI-8226 leukemia = system: RPMI-8226 leukemia
# U251 CNS = system: U251 CNS
# OVCAR-4 ovarian = system: OVCAR-4 ovarian
# MALME-3M melanoma = system: MALME-3M melanoma
# SK-MEL-28 melanoma = system: SK-MEL-28 melanoma
structure (smiles),measurement,setting,value
COc1cc([C@@H]2c3cc4c(cc3[C@@H](Nc3ccc(NC(=O)c5cc([N+](=O)[O-])cn5C)cc3)[C@H]3COC(=O)[C@H]23)OCO4)cc(OC)c1O,GI50,HS 578T breast,2.11 µM and 0.756 µM
same,TGI,HS 578T breast,> 100 µM
same,GI50,CAKI-1 renal,0.0214 µM and 0.0725 µM
same,TGI,CAKI-1 renal,0.204 µM and 0.338 µM
same,TGI,CCRF-CEM leukemia,0.14 µM
same,TGI,OVCAR-3 ovarian,10.7 µM and 3.15 µM
same,TGI,RXF 393 renal,> 100 µM
same,GI50,A498 renal,0.0233 µM and 0.0897 µM
same,TGI,A498 renal,0.402 µM and 0.476 µM
same,TGI,PC-3 prostate,> 100 µM and 12.5 µM
same,TGI,SNB-19 CNS,> 44.5 µM
same,TGI,A549 NSCLC,1.31 µM and 0.309 µM
same,TGI,COLO 205 colon,2.61 µM and 1.3 µM
same,GI50,SN12C renal,0.0231 µM and 0.055 µM
same,TGI,SN12C renal,0.262 µM and 0.437 µM
same,GI50,T-47D breast,0.0115 µM
same,TGI,T-47D breast,28.8 µM and > 24.4 µM
same,TGI,M14 melanoma,2.47 µM and 4.94 µM
same,TGI,786-0 renal,0.29 µM and 0.261 µM
same,GI50,MDA-MB-231 breast,1.34 µM and 4.74 µM
same,TGI,MDA-MB-231 breast,17.3 µM and 14.6 µM
same,TGI,SF-539 CNS,0.446 µM and 0.414 µM
same,GI50,SF-295 CNS,0.0513 µM and 0.0793 µM
same,TGI,MCF7 breast,> 31.6 µM
same,TGI,UACC-257 melanoma,> 65.5 µM
same,GI50,BT-549 breast,0.515 µM
same,TGI,BT-549 breast,> 100 µM
same,GI50,HOP-92 NSCLC,0.0549 µM
same,TGI,HOP-92 NSCLC,39.9 µM and 19.7 µM
same,TGI,EKVX NSCLC,> 100 µM
same,GI50,NCI/ADR-RES ovarian,2.17 µM
same,TGI,NCI/ADR-RES ovarian,> 31.6 µM
same,TGI,ACHN renal,0.484 µM and 0.164 µM
same,TGI,HT29 colon,1.33 µM
same,GI50,SK-MEL-5 melanoma,0.0291 µM and 0.0847 µM
same,TGI,SK-MEL-5 melanoma,0.183 µM and 0.316 µM
same,TGI,NCI-H23 lung,4.04 µM and 0.546 µM
same,GI50,SK-OV-3 ovarian,0.104 µM and 0.262 µM
same,TGI,SK-OV-3 ovarian,> 100 µM and 19.1 µM
same,TGI,UO-31 renal,0.841 µM and 0.825 µM
same,TGI,HCT-116 colon,> 100 µM and 10 µM
same,TGI,SNB-75 CNS,> 63.5 µM
same,GI50,K-562 leukemia,0.293 µM
same,TGI,K-562 leukemia,> 100 µM
same,TGI,NCI-H522 lung,> 100 µM
same,GI50,NCI-H226 lung,0.179 µM and 0.0249 µM
same,TGI,NCI-H226 lung,0.29 µM
same,GI50,HCT-15 colon,0.192 µM
same,TGI,HCT-15 colon,1.54 µM and 2.48 µM
same,TGI,OVCAR-8 ovarian,1.04 µM
same,TGI,HOP-62 NSCLC,0.174 µM and 0.127 µM
same,GI50,MDA-MB-435,0.415 µM
same,TGI,MDA-MB-435,> 100 µM
same,TGI,HL-60(TB) leukemia,0.201 µM and 0.0837 µM
same,TGI,OVCAR-5 ovarian,10.4 µM
same,TGI,DU-145 prostate,0.0772 µM and 0.0578 µM
same,TGI,SF-268 CNS,> 33.5 µM
same,TGI,TK-10 renal,6.15 µM and 2.95 µM
same,GI50,LOX IMVI melanoma,0.111 µM and 0.0268 µM
same,TGI,NCI-H460 lung,0.174 µM and 0.0745 µM
same,TGI,HCC-2998 colon,0.8 µM and 0.872 µM
same,GI50,RPMI-8226 leukemia,< 0.01 µM
same,TGI,RPMI-8226 leukemia,0.116 µM
same,GI50,U251 CNS,0.0436 µM and 0.337 µM
same,TGI,U251 CNS,> 57.5 µM
same,GI50,OVCAR-4 ovarian,11.6 µM and 4.09 µM
same,TGI,OVCAR-4 ovarian,> 100 µM
same,GI50,MALME-3M melanoma,0.279 µM and 0.115 µM
same,TGI,SK-MEL-28 melanoma,> 100 µM
